Laboratory results published in PMC6930638, “The Masked Polar Group Incorporation (MPGI) Strategy in Drug Design: Effects of Nitrogen Substitutions on Combretastatin and Isocombretastatin Tubulin Inhibitors” (Molecules, 2019).
In brackets after ≈: the same amount, converted by molar mass. Where two headings read alike, the source gives them in different places.

Columns and labels:
[1] = tested on: HeLa, HT-29 and MCF-7 human tumor cell lines; assay: Antiproliferative activity over the three human tumor cell lines (MTT); type: cell-based; details: Homo sapiens, range over the cell lines, Table S1; read-out: Cytotoxicity range (range of antiproliferative IC50 values)
Procedure: (§1) The in vitro antiproliferative activity of the synthesized compounds was evaluated by a colorimetric reaction, using the MTT reagent. They were tested against three different human tumor cell lines: HeLa cervix epithelioid carcinoma, HT-29 colon adenocarcinoma, and MCF-7 breast adenocarcinoma. […] Moving the alkylamino substituent from a para to a meta position with respect to the bridge results in potency reduction, except for the phenstatin analogue 1f. However, the introduction of a nitrogen atom to form 2-dimethylaminopyridine derivatives entails a loss of activity, both for phenstatin analogues (1b, 2b), while for isocombretastatins, it only involves a 2–3 times potency decrease (3b). For combretastatins, it implies an improvement in the cytotoxicity values down to tenths of nanomolar (8b). […] On the other hand, the best 2-dimethylaminopyridine was combretastatin 8b. All ammonium salts derivatives were not cytotoxic at micromolar concentrations.
The antiproliferative activity of the compounds against three human tumor cell lines of different origins (i.e., HeLa cervix epithelioid carcinoma, HT-29 colon adenocarcinoma and MCF-7 breast adenocarcinoma) was evaluated by the MTT method. […] This high success rate is the result of a combination of favorable scaffolds and substituents, and it is similar to those of previous reports on related series. […] We have previously observed the same trend for related compounds acting at the colchicine site of tubulin [10, 23]. For this pyridine series, we observed a different potency trend when we compare the 4-amino-3-pyridine and the 3-amino-4-pyridine derivatives. […] This different behavior is probably a reflection of their different shape, combined with the different geometries imposed by different bridges. We have previously shown that the potency ordering isocombretastatins similar to oximes higher than benzophenones could be explained by the higher conjugation of the ketones with the aromatic rings, which imposes a more planar disposition than those required for high affinity colchicine site binding. For the 3-amino-4-pyridine series, more planar structures are required in order to avoid the bumping of the amino substituents with tubulin out the plane of the aromatic ring, an effect which we have previously shown to impact the potency of 3-substituted indolecombretastatins and dimethylaminophenyl phenstatins. This different geometrical disposition of the amino substituents, and the different adaptability of their corresponding pockets in the two series, can also account for the preference of bulkier substituents at position 3, such as the pyrrolidine rather than the smaller dimethylamino. […] The opposite is observed for the 4-dimethylaminophenyl phenstatins 1a and 1b. […] The remarkable levels of solubility achieved for the quaternary ammonium salts came unfortunately at the expenses of biological activity.
The effect of the different compounds on the proliferation of human cell lines was determined by using the MTT (3-[4,5-dimethylthiazol-2-yl]-2,5-diphenyltetrazolium bromide) reagent (MTT Thiazolyl Blue Tetrazolium Bromide, Sigma-Aldrich, St. Louis, MO, USA) dissolved in PBS 5 mg/mL. Cell viability was evaluated seeding 100 µL of cells in exponential growth phase with appropriate cell line concentration (1.5 × 10^4 HeLa and MCF-7 cells/mL and 3 × 10^4 HT-29 cells/mL) in complete medium in 96-well plates at 37 °C and 5% CO2. After 24 h incubation to allow cells to attach to the plates the ligands were added at different concentrations from 10^−5 to 10^−9 M. The effect on the proliferation was evaluated 72 h post-treatment by adding the MTT reagent (10 µL/well) to a final concentration of 0.5 mg/mL and the plate was further incubated for another 3 h. […]

[2] = Aqueous solubility determination (shake flask, UV); type: physicochemical; details: for solubility at 48 h: thermodynamic from solid
Procedure: One of the expected effects of introducing nitrogen substitutions on combretastatin and isocombretastatin analogues, is an increase in aqueous solubility. Solubility was spectrophotometrically determined in phosphate buffer at pH 7. UV absorbance of soluble compounds was measured after shaking and microfiltration. […] In addition, aqueous solubilities of the corresponding ammonium salts are over 1 mg/mL.
This great improvement is probably due to the symmetry reduction, combined with an increased polarity for 2g.
Compounds were stirred in a solution of phosphate buffer at pH 7.0 (1–2 mg of compound in 300 µL of buffer) during 48 h. After that, the samples were filtered over a […] filter to discard the insoluble residues. In order to determine the maximum wavelength of absorbance for each compound, a scan between 270 and 400 nm was performed. Once the wavelength was selected, a calibration line was performed and the concentration of the stirred and filtered samples was measured.

[3] = tested on: HeLa cervix epithelioid carcinoma; assay: MTT cell antiproliferative assay, HeLa; type: cell-based; details: Homo sapiens, 72 h
Procedure: as §1
(§2) HeLa (human cervical carcinoma) and MCF-7 (human breast carcinoma) cell lines were cultured in Dulbecco’s Modified Eagles Medium (DMEM) supplemented with 2 mM L-glutamine (Lonza-Cambrex, Karlskoga, Sweden), 10% (v/v) heat inactivated fetal bovine serum (HIFBS) (Lonza-Cambrex) and 100 μg/mL streptomycin-100 IU/mL penicillin (Lonza-Cambrex) at 37 °C in humidified 95% air and 5% CO2. HT-29 (human colon carcinoma) cells were cultured at 37 °C in complete RPMI 1640 medium containing 2 mM L-glutamine, 10% (v/v) HIFBS and 100 μg/mL streptomycin-100 IU/mL penicillin in humidified 95% air and 5% CO2 atmosphere.
(§3) The effect of the different compounds on the proliferation of human cell lines was determined by using the MTT (3-[4,5-dimethylthiazol-2-yl]-2,5-diphenyltetrazolium bromide) reagent (MTT Thiazolyl Blue Tetrazolium Bromide, Sigma-Aldrich, St. Louis, MO, USA) dissolved in PBS 5 mg/mL. Cell viability was evaluated seeding 100 µL of cells in exponential growth phase with appropriate cell line concentration (1.5 × 10^4 HeLa and MCF-7 cells/mL and 3 × 10^4 HT-29 cells/mL) in complete medium in 96-well plates at 37 °C and 5% CO2. After 24 h incubation to allow cells to attach to the plates the ligands were added at different concentrations from 10^−5 to 10^−9 M. The effect on the proliferation was evaluated 72 h post-treatment by adding the MTT reagent (10 µL/well) to a final concentration of 0.5 mg/mL and the plate was further incubated for another 3 h. After this period, the supernatant was removed, the MTT violet crystals formed on the bottom of each well were dissolved in DMSO (100 µL/well) and subsequently, the absorbance of the color complex was read at 570 nm using a multi-well plate reader. Compounds were dissolved in dimethyl sulfoxide (DMSO) and the final solvent concentrations never exceeded 0.5% (v/v). The control wells included treated cells with 0.5% (v/v) DMSO and the positive control. Measurements were performed in triplicate, and each experiment was repeated three times. […] Nonlinear curves fitting the experimental data were carried out for each compound.

[4] = tested on: Bovine brain microtubule protein (MTP); assay: Tubulin polymerization inhibition assay (turbidimetry); type: biochemical; details: 1.5 mg/mL MTP; IC50 calculated only if more than 50% inhibition at 20 µM; read-out: TPI IC50
Procedure: Bovine brain microtubule protein (MTP) was isolated as previously described. Briefly, it was purified according to the modified Shelanski method by two cycles of temperature-dependent assembly/disassembly.
Tubulin polymerization was monitored using a Helios α spectrophotometer by measuring the increase in turbidity at 450 nm, caused by a shift from 4 °C to 37 °C, which allows the in vitro MTP self-disassembly and assembly respectively. […] Firstly, ligands at 20 µM concentration, were incubated with 1.5 mg/mL MTP at 20 °C for 30 min and subsequently cooled on ice for 10 min. Then, the experiment starts at 4 °C to establish the initial baseline. The assembly process was initiated by shifting of the temperature to 37 °C and the turbidity produced can be measured by an absorbance increase. After reaching a stable plateau, the temperature was switched back to 4 °C to return to the initial absorption values. The difference in amplitude between the stable plateau and the initial baseline of the curves was taken as the degree of tubulin polymerization for each experiment. […] All the measurements were carried out in at least two independent experiments using MTP from different isolation.

[5] = tested on: HT-29 colon adenocarcinoma; assay: MTT cell antiproliferative assay, HT-29 (without or with verapamil); type: cell-based, human; details: for IC50: Homo sapiens, HT-29, MTT, 72 h
Procedure: as §1
As observed in Table 1, there are no significant changes in the IC50 values for most compounds, except for combretastatins 8a and 8i.
Acquired resistance to antitumor drugs is one of the more important problems of chemotherapy, also affecting tubulin-targeting drugs. In order to ascertain the impact of multidrug resistance phenotypes on the action of the compounds, we have measured the cell proliferation inhibitory activity of HT-29 cells in the presence of verapamil, a known P-glycoprotein 1/multidrug resistance protein 1 (MDR1) inhibitor at a concentration of 10 µM, not affecting cell proliferation. […] Except for the combretastatin analogues 8a and 8i, the affected drugs are all pyridine drugs.
as §2, §3

[6] = tested on: MCF-7 breast adenocarcinoma; assay: MTT cell antiproliferative assay, MCF-7; type: cell-based; details: Homo sapiens, MCF7, 72 h
Procedure: as §1, §2, §3

[7] = tested on: rat primary pancreatic cells; assay: Toxicity against rat primary pancreatic cells (MTT); details: 0.05 µM, 7 h
Procedure: The toxicity of the compounds against rat primary pancreatic cells was evaluated by the MTT protocol (Table 2). […] Sodium taurocholate (NaTc) was also used at high concentrations as a model of acute pancreatitis in vitro.
Rat primary pancreatic cells were isolated as previously described. Afterwards, pancreatic cells were resuspended in Na-HEPES solution (pH 7.4) containing 14 mM glucose, 1% essential amino acid mixture, 1% (w/v) BSA, 0.01% (w/v) STI, 0.5 mM CaCl2 and incubated (5% CO2, at 37 °C) for 7 h in the absence (non-treated control) or the presence of compounds at different concentrations. After the treatment, cells were incubated (5% CO2, at 37 °C) with 0.5 mg/mL MTT for 2 h and the formazan crystals were solubilized with DMSO (v/v). The optical density was read at 570 nm with a reference wavelength of 630 nm. Non-treated cell viability was set as 100%.

[8] = phosphate buffer, pH 7, aqueous buffer, phosphate buffer pH 7.0, 48 h stirring, filtered, UV, read-out: Solub.
[9] = aqueous buffer, phosphate buffer pH 7.0, 48 h stirring, filtered, UV, read-out: Solub.

| SMILES | solubility at 48 h [2, 8] | IC50 [3] | IC50 [4] | IC50 [5] | IC50 [6] | solubility at 48 h ([2]; phosphate buffer, pH 7, aqueous buffer, phosphate buffer pH 7, stated in text, read-out: aqueous solubility) | improvement of HT-29 IC50 after verapamil treatment ([5]; 10 µM verapamil) | IC50 [1] | solubility at 48 h [2, 9] | Solub. ([2]; phosphate buffer pH 7.0, 48 h stirring, filtered, UV) | live cells with respect to the non-treated control (means ± S.E.M.) [7] |
| --- | --- | --- | --- | --- | --- | --- | --- | --- | --- | --- | --- |
| COc1cc(C(=NO)c2ccc(N(C)C)cc2)cc(OC)c1OC [Compound 2a, (4-(Dimethylamino)phenyl)(3,4,5-trimethoxyphenyl)methanone oxime] |  | 800 nM | > 20000 nM | 1000 nM |  |  |  |  | 74 µg/mL (≈ 224 µM) |  |  |
| COc1cc(C(=O)c2ccc(N(C)C)cc2)cc(OC)c1OC [Compound 1a, (4-(Dimethylamino)phenyl)(3,4,5-trimethoxyphenyl)methanone] |  | 90 nM | > 20000 nM | 400 nM |  |  |  |  |  | 48 µg/mL |  |
| CC(=O)O[C@H]1C[C@H](O[C@H]2[C@@H](O)C[C@H](O[C@H]3[C@@H](O)C[C@H](O[C@H]4CC[C@@]5(C)[C@H](CC[C@@H]6[C@@H]5C[C@@H](O)[C@]5(C)[C@@H](C7=CC(=O)OC7)CC[C@]65O)C4)O[C@@H]3C)O[C@@H]2C)O[C@H](C)[C@H]1O [Acetyldigoxin, acetyl-digoxin, reference compound] |  |  |  |  |  |  |  |  |  |  | 84.41 ± 9.64% |
| COc1cc(C(=O)c2ccc(N3CCCC3)nc2)cc(OC)c1OC [Compound 1c, (6-(Pyrrolidin-1-yl)pyridin-3-yl)(3,4,5-trimethoxyphenyl)methanone] |  | 1600 nM | > 20000 nM | 5170 nM | 2330 nM |  |  | > 1000 nM |  |  |  |
| C=C(c1ccc(N(C)C)cc1)c1cc(OC)c(OC)c(OC)c1 [Compound 3a, N,N-Dimethyl-4-(1-(3,4,5-trimethoxyphenyl)vinyl)aniline] |  | 40 nM | 1900 nM | 70 nM |  |  |  |  | 30 µg/mL (≈ 95.7 µM) |  |  |

More lines, main results first:

| solubility at 48 h [2, 8] | IC50 [3] | IC50 [4] | IC50 [5] | IC50 [6] | solubility at 48 h ([2]; phosphate buffer, pH 7, aqueous buffer, phosphate buffer pH 7, stated in text, read-out: aqueous solubility) | improvement of HT-29 IC50 after verapamil treatment ([5]; 10 µM verapamil) | SMILES | IC50 [1] | solubility at 48 h [2, 9] | Solub. ([2]; phosphate buffer pH 7.0, 48 h stirring, filtered, UV) | live cells with respect to the non-treated control (means ± S.E.M.) [7] |
| --- | --- | --- | --- | --- | --- | --- | --- | --- | --- | --- | --- |
| 33.8 µg/mL (≈ 107 µM) | 387 nM | > 20000 nM | 313 nM | 223 nM |  |  | COc1cc(C(=O)c2ccnc(N(C)C)c2)cc(OC)c1OC [Compound 1g, (2-(Dimethylamino)pyridin-4-yl)(3,4,5-trimethoxyphenyl)methanone] | 223 to 387 nM |  |  |  |
| 583 µg/mL (≈ 1760 µM) | 533 nM | > 20000 nM | 3370 nM | 407 nM | ~600 µg/mL (≈ 1810 µM) |  | COc1cc(C(=NO)c2ccnc(N(C)C)c2)cc(OC)c1OC [Compound 2g, (2-(Dimethylamino)pyridin-4-yl)(3,4,5-trimethoxyphenyl)methanone oxime] |  |  |  |  |
|  | 413 nM | > 20000 nM | 500 nM | 407 nM |  |  | COc1ccc(C(=O)c2ccc(N(C)C)cc2)c(OC)c1OC [Compound 1d, (4-(Dimethylamino)phenyl)(2,3,4-trimethoxyphenyl)methanone] | 407 to 650 nM |  |  |  |
| 62 µg/mL (≈ 182 µM) | 257 nM | > 20000 nM | 477 nM | 317 nM |  | > 2 fold | C=C(c1ccnc(N2CCCC2)c1)c1cc(OC)c(OC)c(OC)c1 [Compound 3h, 2-(Pyrrolidin-1-yl)-4-(1-(3,4,5-trimethoxyphenyl)vinyl)pyridine] | 230 to 477 nM |  |  |  |
|  | 1000 nM | > 20000 nM | 4000 nM | 2000 nM |  |  | C=C(c1ccc(N(C)C)cc1)c1ccc(OC)c(OC)c1OC [Compound 3d, N,N-dimethyl-4-(1-(2,3,4-trimethoxyphenyl)vinyl)aniline] | > 1000 nM |  |  |  |
| 136 µg/mL (≈ 433 µM) | 403 nM | > 20000 nM | 397 nM | 367 nM |  |  | C=C(c1ccnc(N(C)C)c1)c1cc(OC)c(OC)c(OC)c1 [Compound 3g, N,N-Dimethyl-4-(1-(3,4,5-trimethoxyphenyl)vinyl)pyridin-2-amine] |  |  |  |  |
